Source: patent US12447147B2, “Methods of treating, ameliorating, and/or preventing cancer using pyrvinium compositions” (Thomas Jefferson University, priority 2019, dated 2025)
Like-named read-outs stand apart in the source and are kept apart here.

Assays:
[1] = system: PDA; assay: Tumor volume, PARP inhibitor with or without shHuR; assay type: in vivo
Description: HuR (ELAVL1) is an RNA binding protein that, upon exposure to a variety of intrinsic cancer related stressors, binds to a network of pro-survival mRNAs leading to an increase in their stability and translation. […] HuR CRISPR knockout PDA cell lines have a xenograft lethal phenotype. […] HuR is also important for oxaliplatin resistance in PDA. Utilizing a tumor microarray (TMA) from resected patient samples of PDA, it was discovered that 79% (n=80) of patients were positive for cytoplasmic HuR, with little to no cytoplasmic localization detected in adjacent normal tissues. HuR is a driver of chemoresistance in PDA and thus a prime target for re-sensitizing PDA cells to current therapies. While several compounds have been investigated as HuR inhibitors, to date there are no clinically viable HuR inhibitors.

[2] = In vivo models, pyrvinium pamoate and ademaciclib (FIGS. 14A-14C)
[3] = molecular target: VEGF DNA binding to HuR (Homo sapiens, UniProt Q15717); assay: Inhibition of VEGF DNA binding to HuR; conditions: for Mean Max % I: mean of n1 and n2; for Max % I, n1: replicate n1; for Max % I, n2: replicate n2
[4] = molecular target: COX2 DNA binding to HuR (Homo sapiens, UniProt Q15717); assay: Inhibition of COX2 DNA binding to HuR; conditions: for Mean Max % I: mean of n1 and n2; for Max % I, n1: replicate n1; for Max % I, n2: replicate n2
[5] = system: MIA-PaCa2 cells; assay: MIA-PaCa2 flank tumor growth in mice; assay type: in vivo, nude mice; conditions: for tumor growth: 1 mg/kg IP 3 times weekly vs vehicle, MIA-PaCa2 flank tumors started at 100 mm^3
Description: (§1) KPC mice have both an activating KRAS mutation (KRAS is mutated in up to 90% of PDA) and a loss of P53 driven by a pancreas specific Cre promoter. The KTC organoid model is derived from a GEMM that has a driver KRAS mutation and greater than 2-fold overexpression of HuR, specifically in the pancreas.

[6] = system: HS766T; assay: 5 day viability assay (Pico Green), HS766T; assay type: cell-based; conditions: 120 h
Experimental: (§2) The efficacy of pyrvinium pamoate was determined in a panel of PDA cell lines.

[7] = system: Panc-1; assay: 5 day viability assay (Pico Green), Panc-1; assay type: cell-based; conditions: Homo sapiens, 120 h
Experimental: as §2

[8] = system: MIA-PaCa2; assay: 5 day viability assay (Pico Green), MIA-PaCa2; assay type: cell-based; conditions: Homo sapiens, MIA PaCa-2, 120 h
Experimental: as §2

[9] = molecular target: HuR binding to target mRNA VEGF (Homo sapiens, UniProt Q15717); assay: Inhibition of HuR binding to target mRNA VEGF; conditions: given as a range
[10] = Synergy with CDK4/6 inhibitors (FIGS. 13A-13F)
[11] = oral tablets or suspensions; urine up to 96 hours after each dose; cited from earlier work
[12] = molecular target: HuR binding to target mRNA COX2 (Homo sapiens, UniProt Q15717); assay: Inhibition of HuR binding to target mRNA COX2; conditions: given as a range
[13] = system: PDX-X139; assay: 5 day viability assay (Pico Green), PDX cell line; assay type: cell-based; conditions: 120 h
Description: as §1

[14] = system: KTC Organoids; assay: 5 day viability assay (Pico Green), KTC organoids; assay type: cell-based; conditions: Mus musculus, 120 h
Description: as §1

[15] = system: CFPAC; assay: 5 day viability assay (Pico Green), CFPAC; assay type: cell-based; conditions: 120 h
Experimental: as §2

[16] = system: cyclin Dl; assay: Cyclin D1 knockdown (FIG. 12)
[17] = mean of n1 and n2, read-out: Mean IC50
[18] = replicate n1, read-out: IC50, n1
[19] = replicate n2, read-out: IC50, n2

Sequence of HuR binding to target mRNA COX2 (Q15717 whole entry): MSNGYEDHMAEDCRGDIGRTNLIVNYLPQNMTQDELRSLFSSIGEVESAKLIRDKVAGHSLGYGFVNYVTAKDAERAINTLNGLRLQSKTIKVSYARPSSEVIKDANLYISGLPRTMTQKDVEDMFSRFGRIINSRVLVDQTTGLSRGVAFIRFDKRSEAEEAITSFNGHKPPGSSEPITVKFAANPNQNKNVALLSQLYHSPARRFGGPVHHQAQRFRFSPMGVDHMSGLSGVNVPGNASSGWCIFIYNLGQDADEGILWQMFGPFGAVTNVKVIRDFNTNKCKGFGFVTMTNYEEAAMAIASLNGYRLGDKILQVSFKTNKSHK
Sequence of VEGF DNA binding to HuR (Q15717 whole entry): as above
Sequence of COX2 DNA binding to HuR (Q15717 whole entry): as above
Sequence of HuR binding to target mRNA VEGF (Q15717 whole entry): as above

Mean Max % I [3]	IC50 [3, 17]	Max % I, n1 [3]	IC50 [3, 18]	Max % I, n2 [3]	IC50 [3, 19]	Mean Max % I [4]	IC50 [4, 17]	Max % I, n1 [4]	IC50 [4, 18]	Max % I, n2 [4]	IC50 [4, 19]	Compound	further results
												O=C(c1cc(Cc2n[nH]c(=O)c3ccccc23)ccc1F)N1CCN(C(=O)C2CC2)CC1 [olaparib]	reduction in tumor volume ([1]; combined with shHuR (DOX-inducible)): 9.3 fold; reduction in tumor volume ([1]; olaparib alone): 5.6 fold
												CCN1CCN(Cc2ccc(Nc3ncc(F)c(-c4cc(F)c5nc(C)n(C(C)C)c5c4)n3)nc2)CC1 [ademaciclib]	efficacy in in vivo models [2]: efficacious
74.7%	144 nM	77.0%	167 nM	72.4%	124 nM	92.7%	29 nM	92.9%	28 nM	92.4%	30 nM	Verteporfin	
78.3%	5410 nM		5050 nM	74.9%	5790 nM	83.8%	2950 nM		2220 nM	84.1%	3910 nM	CC(=O)O[C@H]1C(=O)[C@@]2(C)[C@H]([C@H](OC(=O)c3ccccc3)[C@]3(O)C[C@H](OC(=O)[C@H](O)[C@@H](NC(=O)c4ccccc4)c4ccccc4)C(C)=C1C3(C)C)[C@]1(OC(C)=O)CO[C@@H]1C[C@@H]2O [Paclitaxel]	
78.7%	1290 nM	85.6%	1280 nM	71.9%	1300 nM	81.6%	674 nM	81.1%	593 nM	82.1%	767 nM	COc1ccc(C(CC(=O)N2CCCC2)c2c(OC)cc(OC)c3c(-c4ccccc4)cc(=O)oc23)cc1 (stereo not drawn) [CMLD2]	
100.0%	7380 nM	100.0%	6100 nM	100.0%	8930 nM	100.0%	5470 nM	100.0%	4080 nM	100.0%	7340 nM	Dihydro-tashinone	
99.8%	16 nM	100.0%	15 nM	99.5%	17 nM	100.0%	33 nM	100.0%	33 nM	100.0%	32 nM	Cc1occ2c1C(=O)c1c(O)ccc(O)c1C2 [MS444]	
	> 20000 nM		> 20000 nM		> 20000 nM		> 20000 nM	100.0%	> 20000 nM	100.0%	> 20000 nM	Nc1ccn([C@@H]2O[C@H](CO)[C@@H](O)C2(F)F)c(=O)n1 [Gemcitabine]	IC50 [9]: > 20000 nM; IC50 [12]: > 20000 nM

Compound	Mean Max % I [3]	IC50 [3, 17]	Max % I, n1 [3]	IC50 [3, 18]	Max % I, n2 [3]	IC50 [3, 19]	Mean Max % I [4]	IC50 [4, 17]	Max % I, n1 [4]	IC50 [4, 18]	Max % I, n2 [4]	IC50 [4, 19]	further results
Cc1cccc2c3c(ccc12)C1=C(C(=O)C3=O)[C@@H](C)CO1 [DHTS]	92.9%	1500 nM	86.5%	1070 nM	99.2%	2120 nM	94.0%	599 nM	100.0%	1080 nM	88.1%	332 nM	
Cc1cc(/C=C/c2ccc3cc(N(C)C)ccc3[n+]2C)c(C)n1-c1ccccc1 [PP, pyrvinium pamoate]	86.8%	149 nM	87.2%	187 nM	86.5%	118 nM	89.3%	198 nM	88.8%	340 nM	89.8%	115 nM	tumor growth [5]: reduced tumor growth; tumor growth ([5]; listed as pyrvinium pamoate): significant decrease; mouse weights ([5]; 1 mg/kg IP 3 times weekly, MIA-PaCa2 tumor-bearing mice): no changes; IC50 [6]: 93 nM; IC50 [7]: 92 nM; IC50 [8]: 40 nM; IC50 [9]: 203 to 416 nM; effect with CDK4/6 inhibitors [10]: synergistic effect; efficacy in in vivo models [2]: efficacious; urine levels of pyrvinium vs the 24 hr prior to administration [11]: not significantly different; IC50 [12]: 207 to 453 nM; IC50 [13]: 9 nM; IC50 [14]: 93 nM; IC50 [15]: 21 nM; knockdown of cyclin Dl [16]: causes a knockdown
O=C1[O][Pt]2([NH][C@@H]3CCCC[C@H]3[NH]2)[O]C1=O [Oxaliplatin]		> 20000 nM		> 20000 nM		> 20000 nM		> 20000 nM	100.0%	> 20000 nM	100.0%	> 20000 nM	IC50 [9]: > 20000 nM; IC50 [12]: > 20000 nM
